Here are results for 21 molecules from patent publication US11866450B2, “Modulators of Cystic Fibrosis Transmembrane Conductance regulator, pharmaceutical compositions, methods of treatment, and process for making the modulators” (priority 2018, dated 2024).

The conditions of data set [1]: snar bond, DMSO.
In data set [2] the target is CFTR-mediated chloride transport (Homo sapiens, UniProt P13569). The format is cell-based. The note with it: enteroid cells incubated with test compound 18-24 hours, acute 10 μM forskolin and 300 nM Compound III; for Max. Activity: % of chloride transport with 3 μM Compound A, 3 μM Compound II and 300 nM acute Compound III triple combination control. The method, boiled down: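 Membrane-potential fluorescence AUC over 15 min quantified CFTR chloride transport after acute forskolin (10 μM), IBMX (100 μM) and Compound III (300 nM) in chloride-free buffer. Human enteroid cells were pretreated with compound for 18–24 h; % Activity is relative to 3 μM Compound A + 3 μM Compound II + 300 nM Compound III.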

Where [3] appears, read: from Cc1c(S(=O)(=O)NC(=O)c2ccc(-n3ccc(OCC(C)(C)C(F)(F)F)n3)nc2Cl)cnn1CCCC1CNC(C)(C)C1, 14-membered ring, K2CO3/CsF/3A MS, 25.9 mM, 150.0 °C.

pEC50: −log10 of the molar value. Several values for one entry are separate records, joined by “and”; a condition that tells them apart may be missing. Equal entries are not always repeated. Where two headings read alike, the source gives them in different places. Bounds are passed on as bounds.

Chain of CFTR-mediated chloride transport (P13569 whole entry, looked up): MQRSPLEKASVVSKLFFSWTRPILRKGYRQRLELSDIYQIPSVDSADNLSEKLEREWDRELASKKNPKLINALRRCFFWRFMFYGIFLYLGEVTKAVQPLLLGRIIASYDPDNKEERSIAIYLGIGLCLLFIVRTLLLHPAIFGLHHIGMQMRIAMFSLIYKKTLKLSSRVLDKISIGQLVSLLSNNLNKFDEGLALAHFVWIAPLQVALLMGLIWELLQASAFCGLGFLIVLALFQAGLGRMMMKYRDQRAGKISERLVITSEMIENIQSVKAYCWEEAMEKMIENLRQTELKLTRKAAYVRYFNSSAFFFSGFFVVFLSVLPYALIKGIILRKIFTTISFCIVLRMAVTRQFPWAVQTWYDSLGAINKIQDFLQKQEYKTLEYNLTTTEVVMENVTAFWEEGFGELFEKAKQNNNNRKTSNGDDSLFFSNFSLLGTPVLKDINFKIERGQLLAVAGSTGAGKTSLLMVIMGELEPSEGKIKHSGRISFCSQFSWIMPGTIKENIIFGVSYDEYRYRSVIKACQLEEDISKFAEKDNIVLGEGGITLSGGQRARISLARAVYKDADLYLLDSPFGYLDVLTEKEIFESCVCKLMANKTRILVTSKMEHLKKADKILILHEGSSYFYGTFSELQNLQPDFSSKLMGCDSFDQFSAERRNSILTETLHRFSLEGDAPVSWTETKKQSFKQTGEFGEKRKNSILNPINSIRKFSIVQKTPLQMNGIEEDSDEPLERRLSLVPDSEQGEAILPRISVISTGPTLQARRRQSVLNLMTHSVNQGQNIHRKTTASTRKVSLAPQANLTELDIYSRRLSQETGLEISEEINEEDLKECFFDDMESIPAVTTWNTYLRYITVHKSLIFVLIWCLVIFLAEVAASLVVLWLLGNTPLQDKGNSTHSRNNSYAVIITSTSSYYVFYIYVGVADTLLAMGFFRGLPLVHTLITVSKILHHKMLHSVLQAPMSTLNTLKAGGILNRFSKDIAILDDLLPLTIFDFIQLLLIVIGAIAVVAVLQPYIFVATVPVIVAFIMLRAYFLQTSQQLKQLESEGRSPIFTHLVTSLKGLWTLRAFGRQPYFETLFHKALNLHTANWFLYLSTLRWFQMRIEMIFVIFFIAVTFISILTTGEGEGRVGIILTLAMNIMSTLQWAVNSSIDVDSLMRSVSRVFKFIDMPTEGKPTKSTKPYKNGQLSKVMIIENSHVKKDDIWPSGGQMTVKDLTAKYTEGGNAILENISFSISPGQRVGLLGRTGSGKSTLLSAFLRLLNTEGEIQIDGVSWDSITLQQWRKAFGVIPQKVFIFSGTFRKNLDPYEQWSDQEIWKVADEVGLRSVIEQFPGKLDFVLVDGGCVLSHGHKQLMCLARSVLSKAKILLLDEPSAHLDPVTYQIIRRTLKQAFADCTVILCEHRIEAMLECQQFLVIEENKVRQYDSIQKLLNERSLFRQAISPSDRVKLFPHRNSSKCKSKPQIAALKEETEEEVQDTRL

Turning to `CC1(C)CC2CCCNc3cccc(n3)S(=O)(=O)NC(=O)c3ccc(Cl)nc3N1C2` (stereo not shown), the ring closure, yield after HPLC in data set [1] (from CC1(C)CC(CCCNc2cccc(S(=O)(=O)NC(=O)c3ccc(Cl)nc3Cl)n2)CN1, 15-membered ring, K2CO3/CsF/3A MS, 82.2 mM, 140.0 °C) was determined as 38%.

For the molecule `CC1(C)CC2CCCn3ccc(n3)S(=O)(=O)NC(=O)c3ccc(Cl)nc3N1C2` (stereo not shown), the ring closure, yield after HPLC in data set [1] (from CC(C)(C)OC(=O)N1CC(CCCn2nccc2S(=O)(=O)NC(=O)c2ccc(Cl)nc2Cl)CC1(C)C, 14-membered ring, K2CO3/CsF/3A MS, 89.2 mM, 140.0 °C, 2 steps) was found to be 12%.

`CC1(C)CC2CCCn3nccc3S(=O)(=O)NC(=O)c3ccc(Cl)nc3N1C2` (stereo not shown) registered a ring closure, yield after HPLC in data set [1] (from tert-butyl 4-[3-[3-1(2,6-dichloropyridine-3-carbonyl)sulfamoyl]pyrazol-1-yl]propyl]-2,2-dimethyl-pyrrolidine-1-carboxylate, TFA (Boc off), CsF/K2CO3/3A MS, 89.2 mM, 140.0 °C, 2 steps) of 4%.

As for `CC1(C)CC2CCNc3cccc(n3)S(=O)(=O)NC(=O)c3ccc(-n4ccc(OCCCC5(C(F)(F)F)CC5)n4)nc3N1C2` (stereo not shown), the ring closure, yield after HPLC in data set [1] (from CC1(C)CC(CCNc2cccc(S(=O)(=O)NC(=O)c3ccc(-n4ccc(OCCCC5(C(F)(F)F)CC5)n4)nc3Cl)n2)CN1, 14-membered ring, K2CO3/CsF/3A MS, 128.0 mM, 150.0 °C) stood at 43%.

With `CC1(C)CCC2CCCNc3cccc(n3)S(=O)(=O)NC(=O)c3ccc(Cl)nc3N21` (stereo not shown), the ring closure, yield after HPLC in data set [1] (from CC1(C)CCC(CCCNc2cccc(S(=O)(=O)NC(=O)c3ccc(Cl)nc3Cl)n2)N1, 14-membered ring, K2CO3/CsF/4A MS, 63.7 mM, 150.0 °C) is 24%.

In turn, `CC1(C)CCC2CCCOc3cccc(c3)S(=O)(=O)NC(=O)c3ccc(-n4ccc(OCCC5(C(F)(F)F)CC5)n4)nc3N21` (stereo not shown) gave a ring closure, yield after HPLC in data set [1] (from CC(C)(C)OC(=O)N1C(CCCOc2cccc(S(=O)(=O)NC(=O)c3ccc(-n4ccc(OCCC5(C(F)(F)F)CC5)n4)nc3Cl)c2)CCC1(C)C, 14-membered ring, K2CO3, then CsF, 64.2 mM, 170.0 °C, 2 steps) of 4%.

Molecule `Cc1c2cnn1CCCCC1CN(c3nc(-n4ccc(OCCC5(C(F)(F)F)CC5)n4)ccc3C(=O)NS2(=O)=O)C(C)(C)C1` (stereo not shown) returned a ring closure, yield after HPLC in data set [1] (from Cc1c(S(=O)(=O)NC(=O)c2ccc(-n3ccc(OCCC4(C(F)(F)F)CC4)n3)nc2Cl)cnn1CCCCC1CNC(C)(C)C1, 15-membered ring, K2CO3/CsF, 130.1 mM, 150.0 °C) of 13%.

For the molecule `Cc1c2cnn1CCC[C@@H]1CN(c3nc(-n4ccc(OCCC5(C(F)(F)F)CC5)n4)ccc3C(=O)NS2(=O)=O)C(C)(C)C1`, the ring closure, yield after HPLC in data set [1] (from Cc1c(S(=O)(=O)NC(=O)c2ccc(-n3ccc(OCCC4(C(F)(F)F)CC4)n3)nc2Cl)cnn1CCC[C@@H]1CNC(C)(C)C1, 14-membered ring, K2CO3/CsF, 37.8 mM, 160.0 °C) was 6% and 16%.

Turning to `Cc1ccc2nc1NCCCC1CN(c3nc(-n4ccc(OCCC5(C(F)(F)F)CC5)n4)ccc3C(=O)NS2(=O)=O)C(C)(C)C1` (stereo not shown), the ring closure, yield after HPLC in data set [1] (from Cc1ccc(S(=O)(=O)NC(=O)c2ccc(-n3ccc(OCCC4(C(F)(F)F)CC4)n3)nc2Cl)nc1NCCCC1CNC(C)(C)C1, 15-membered ring, K2CO3/CsF/4A MS, 61.3 mM, 140.0 °C, 16.0 h) was 42%.

Regarding `Cc1cn2nc1S(=O)(=O)NC(=O)c1ccc(-n3ccc(OCCC(C4CC4)C4CC4)n3)nc1N1CC(CCC2)CC1(C)C` (stereo not shown), the ring closure, yield after HPLC in data set [1] (from Cc1cn(CCCC2CNC(C)(C)C2)nc1S(=O)(=O)NC(=O)c1ccc(-n2ccc(OCCC(C3CC3)C3CC3)n2)nc1Cl, 14-membered ring, K2CO3/CsF/3A MS, 58.8 mM, 150.0 °C) was 38%.

Consider `[2H]C([2H])(Oc1ccn(-c2ccc3c(n2)N2C[C@@H](CCCNc4nc(ccc4OCc4ccccc4)S(=O)(=O)NC3=O)CC2(C)C)n1)C([2H])([2H])C1C2(CC2)C12CC2`, for which the ring closure, yield after HPLC in data set [1] (from [2H]C([2H])(Oc1ccn(-c2ccc(C(=O)NS(=O)(=O)c3ccc(OCc4ccccc4)c(NCCC[C@@H]4CN(C(=O)OC(C)(C)C)C(C)(C)C4)n3)c(Cl)n2)n1)C([2H])([2H])C1C2(CC2)C12CC2, 15-membered ring, K2CO3/4A MS, 100.9 mM, 140.0 °C, 2 steps) is 44%.

What is called pEC50 is −log10 of the EC50, conventionally taken in molar units. `CC1(C)CC2CCCNc3ccc(cn3)S(=O)(=O)NC(=O)c3ccc(-n4ccc(OCCC5(C(F)(F)F)CC5)n4)nc3N1C2` (racemic) [Compound 62, 12,12-Dimethyl-8-(3-{2-[1-(trifluoromethyl)cyclopropyl]ethoxy}-1H-pyrazol-1-yl)-2λ^6-thia-3,9,11,18,20-pentaazatetracyclo[17.2.2.111,14.05,10]tetracosa-1(22),5,7,9,19(23),20-hexaene-2,2,4-trione] registered a ring closure, yield after HPLC in data set [1] (from CC1(C)CC(CCCNc2ccc(S(=O)(=O)NC(=O)c3ccc(-n4ccc(OCCC5(C(F)(F)F)CC5)n4)nc3Cl)cn2)CN1, 16-membered ring, K2CO3/CsF/3A MS, 37.3 mM, 165.0 °C, 19.0 h) of 6%. Further, in data set [2], the pEC50 is above 6.00 and the “Max. Activity” value is given as “+++ (+++ is >60%)”.

On to `Cc1c2cnn1CCCC1CN(c3nc(-n4ccc(OCC(C)(C)C(F)(F)F)n4)ccc3C(=O)NS2(=O)=O)C(C)(C)C1` (single isomer, unassigned; atropisomer 1), for which the ring closure, yield after HPLC in data set [1] (setting [3]) worked out at 10%.

With `Cc1c2cnn1CCCC1CN(c3nc(-n4ccc(OCC(C)(C)C(F)(F)F)n4)ccc3C(=O)NS2(=O)=O)C(C)(C)C1` (single isomer, unassigned; atropisomer 2), the ring closure, yield after HPLC in data set [1] (setting [3]) came out at 4%.

As to `CC1(C)CC2CCNc3cccc(n3)S(=O)(=O)NC(=O)c3ccc(-n4ccc(OCCC(C5CC5)C5CC5)n4)nc3N1C2` (single isomer, unassigned; enantiomer 1), in data set [1] (from CC1(C)CC(CCNc2cccc(S(=O)(=O)NC(=O)c3ccc(-n4ccc(OCCC(C5CC5)C5CC5)n4)nc3Cl)n2)CN1, 14-membered ring, K2CO3/CsF/3A MS, 24.9 mM, 150.0 °C), the ring closure, yield after HPLC amounted to 41%.

`CC1(C)CC2CCNc3cccc(n3)S(=O)(=O)NC(=O)c3ccc(-n4ccc(OCCC(C5CC5)C5CC5)n4)nc3N1C2` (single isomer, unassigned; enantiomer 2) had a ring closure, yield after HPLC in data set [1] (from CC1(C)CC(CCNc2cccc(S(=O)(=O)NC(=O)c3ccc(-n4ccc(OCCC(C5CC5)C5CC5)n4)nc3Cl)n2)CN1, 14-membered ring, K2CO3/CsF/3A MS, 22.7 mM, 150.0 °C) of 29%.

`Cc1c2cnn1CCCC1CN(c3nc(-n4ccc(OCC(C)(C)C(F)(F)F)n4)ccc3C(=O)NS2(=O)=O)C(C)(C)C1` (stereo not shown) [Compound 280, 20,20,22-trimethyl-4-[3-(3,3,3-trifluoro-2,2-dimethylpropoxy)-1H-pyrazol-1-yl]-10λ^6-thia-1,3,9,13,14-pentaazatetracyclo[16.2.1.111,14.02,7]docosa-2,4,6,11(22),12-pentaene-8,10,10-trione]: in data set [2], the negative logarithm of the EC50 (pEC50) was above 6.00 and the “Max. Activity” value is “++ (++ is 30-60%)”.

As for `Cc1c2cnn1CCCC1CN(c3nc(-n4ccc(OCC(C)(C)C(F)(F)F)n4)ccc3C(=O)NS2(=O)=O)C(C)(C)C1` (stereo not shown) [Compound 282, 20,20,22-trimethyl-4-[3-(3,3,3-trifluoro-2,2-dimethylpropoxy)-1H-pyrazol-1-yl]-10λ^6-thia-1,3,9,13,14-pentaazatetracyclo[16.2.1.111,14.02,7]docosa-2,4,6,11(22),12-pentaene-8,10,10-trione], in data set [2], the pEC50 was below 5.52 and the “Max. Activity” value is listed as “+ (+ is <30%)”.

`[2H]c1ccc2nc1NCCC[C@@H]1CN(c3nc(-n4ccc(OCC([2H])([2H])C5C6(CC6)C56CC6)n4)ccc3C(=O)NS2(=O)=O)C(C)(C)C1` [Compound 298, (14S)-8-[3-(2-{dispiro[2.0.2.1]heptan-7-yl}-2,2-dideuterio-ethoxy)-1H-pyrazol-1-yl]-12,12-dimethyl(20-deuterio)-2λ^6-thia-3,9,11,18,23-pentaazatetracyclo[17.3.1.111,14.05,10]tetracosa-1(23),5,7,9,19,21-hexaene-2,2,4-trione]: in data set [2], the pEC50 is above 6.00 and the “Max. Activity” value is reported as “+++ (+++ is >60%)”.

Regarding `[2H]c1ccc2nc1NCCC[C@@H]1CN(c3nc(-n4ccc(OCCC5C6(CC6)C56CC6)n4)ccc3C(=O)NS2(=O)=O)C(C)(C)C1` [Compound 300, (14S)-8-[3-(2-{dispiro[2.0.2.1]heptan-7-yl}ethoxy)-1H-pyrazol-1-yl]-12,12-dimethyl(20-deuterio)-2λ^6-thia-3,9,11,18,23-pentaazatetracyclo[17.3.1.111,14.05,10]tetracosa-1(23),5,7,9,19,21-hexaene-2,2,4-trione], in data set [2], the pEC50 was above 6.00 and the “Max. Activity” value is recorded as “+++ (+++ is >60%)”.

As to `[2H]c1ccc2nc1NCCC[C@@H]1CN(c3nc(-n4ccc(OC([2H])([2H])C([2H])([2H])C5C6(CC6)C56CC6)n4)ccc3C(=O)NS2(=O)=O)C(C)(C)C1` [Compound 301, (14S)-8-[3-(2-{dispiro[2.0.2.1]heptan-7-yl}-1,1,2,2-tetradeuterio-ethoxy)-1H-pyrazol-1-yl]-12,12-dimethyl(20-deuterio)-2λ^6-thia-3,9,11,18,23-pentaazatetracyclo[17.3.1.111,14.05,10]tetracosa-1(23),5,7,9,19,21-hexaene-2,2,4-trione], in data set [2], the pEC50 was above 6.00 and the “Max. Activity” value is “+++ (+++ is >60%)”.
